The source of these data is ChEMBL document CHEMBL1138059, “Discovery of a nanomolar inhibitor of the human murine double minute 2 (MDM2)-p53 interaction through an integrated, virtual database screening strategy” (J Med Chem, 2006).

Activity calls are given as the source filed them. The rule behind the calls is not given here.

For test [1], the target named is E3 ubiquitin-protein ligase Mdm2 (Homo sapiens, UniProt Q00987).
In test [2] the test system is HCT-116. The test can be described thus: Induction of MDM2 accumulation in isogenic HCT116 p53-/- cells. In kind it is functional, cell-based. The conditions noted are these: Homo sapiens.
Test [3] deals with HCT-116. As to the kind of experiment: Induction of p21 accumulation in isogenic HCT116 p53-/- cells. It is filed as functional, cell-based. Conditions: Homo sapiens.
In test [4] the test system is HCT-116. As to the kind of experiment: Induction of p53 accumulation in isogenic HCT116 p53-/- cells. It is filed as functional, cell-based. Conditions: Homo sapiens.
The test system of test [5] is HCT-116. As to the kind of experiment: Induction of p21 accumulation in HCT116 cells expressing wild type p53. The conditions noted are these: Homo sapiens. It is filed as functional, cell-based.
Test [6] has as its system HCT-116. As to the kind of experiment: Induction of p53 accumulation in HCT116 cells expressing wild type p53. In kind it is functional, cell-based. Conditions: Homo sapiens.
Test [7] deals with HCT-116. The test can be described thus: Induction of MDM2 accumulation in HCT116 cells expressing wild type p53. In kind it is functional, cell-based. Conditions: Homo sapiens.

Chain of E3 ubiquitin-protein ligase Mdm2 (Q00987 whole entry): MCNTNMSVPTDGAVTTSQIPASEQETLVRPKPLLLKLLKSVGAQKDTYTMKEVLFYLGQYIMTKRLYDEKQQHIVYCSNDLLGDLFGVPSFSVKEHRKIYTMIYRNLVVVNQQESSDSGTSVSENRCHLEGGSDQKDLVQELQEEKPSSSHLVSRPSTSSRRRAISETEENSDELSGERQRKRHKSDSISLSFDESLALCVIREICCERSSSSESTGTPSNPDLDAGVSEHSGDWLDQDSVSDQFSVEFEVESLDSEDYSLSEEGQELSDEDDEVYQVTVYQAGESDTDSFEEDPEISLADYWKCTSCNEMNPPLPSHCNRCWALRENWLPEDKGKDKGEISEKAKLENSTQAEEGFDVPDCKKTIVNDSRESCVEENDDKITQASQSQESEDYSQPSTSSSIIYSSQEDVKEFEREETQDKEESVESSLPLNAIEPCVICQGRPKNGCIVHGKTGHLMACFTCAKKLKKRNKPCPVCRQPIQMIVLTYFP

As for `Cc1ccc2ccc(C(Nc3ccccc3)c3ccccc3)c(O)c2n1` (configuration not stated), affinity in test [1] was put at a Ki of 120 nM. Also, the result in test [2], in test [3] and in test [4] was inactive. The Activity result in test [5], in test [6] and in test [7] was “Dose-dependent effect” in each case.

In general, Ki refers to the equilibrium dissociation constant of an inhibitor or competing ligand from its target.
